In the NIST ThermoML archive (doi:10.1021/acs.jced.7b00429):

Assay: xn = mol fraction of the nth substance listed
Conditions: 100 kPa, Liquid; for viscosity: Falling or rolling sphere viscometry; for speed of sound: Frequency=3 MHz, Single path-length method; for mass density: Vibrating tube method

C[S+](C)[O-] [dimethyl sulfoxide] + CC#N
Conditions | mass density [kg/m3] | speed of sound [m/s] | viscosity [mPa·s]
298.15 K, x1 = 0.0995 | 820.43 | 1299.5 | 0.42
298.15 K, x1 = 0.2061 | 862.88 | 1322.6 | 0.52
298.15 K, x1 = 0.2936 | 896.29 | 1346.2 | 0.57
298.15 K, x1 = 0.4055 | 935.15 | 1372 | 0.72
298.15 K, x1 = 0.5051 | 966.82 | 1395.1 | 0.86
298.15 K, x1 = 0.6001 | 994.77 | 1415.8 | 1.06
298.15 K, x1 = 0.7006 | 1022.53 | 1439.2 | 1.27
298.15 K, x1 = 0.8072 | 1050.32 | 1460.8 | 1.54
298.15 K, x1 = 0.8947 | 1071.95 | 1480.9 | 1.76
298.15 K, x1 = 1 | 1095.62 | 1490.5 | 2.03
303.15 K, x1 = 0.0995 | 815.06 | 1280.1 | 0.4
303.15 K, x1 = 0.2061 | 857.6 | 1303.8 | 0.49
303.15 K, x1 = 0.2936 | 891.05 | 1327.8 | 0.53
303.15 K, x1 = 0.4055 | 929.99 | 1354.1 | 0.67
303.15 K, x1 = 0.5051 | 961.71 | 1377.5 | 0.81
303.15 K, x1 = 0.6001 | 989.72 | 1398.5 | 0.97
303.15 K, x1 = 0.7006 | 1017.55 | 1422.2 | 1.17
303.15 K, x1 = 0.8072 | 1045.34 | 1443.9 | 1.42
303.15 K, x1 = 0.8947 | 1066.98 | 1464 | 1.6
303.15 K, x1 = 1 | 1090.62 | 1473.6 | 1.84
308.15 K, x1 = 0.0995 | 809.67 | 1260.6 | 0.39
308.15 K, x1 = 0.2061 | 852.28 | 1285 | 0.46
308.15 K, x1 = 0.2936 | 885.81 | 1309.9 | 0.52
308.15 K, x1 = 0.4055 | 924.82 | 1336.2 | 0.64
308.15 K, x1 = 0.5051 | 956.58 | 1360 | 0.75
308.15 K, x1 = 0.6001 | 984.67 | 1381.3 | 0.91
308.15 K, x1 = 0.7006 | 1012.57 | 1405.2 | 1.08
308.15 K, x1 = 0.8072 | 1040.36 | 1427 | 1.29
308.15 K, x1 = 0.8947 | 1062.01 | 1447.2 | 1.47
308.15 K, x1 = 1 | 1085.61 | 1456.8 | 1.67
313.15 K, x1 = 0.0995 | 804.26 | 1241.2 | 0.37
313.15 K, x1 = 0.2061 | 846.95 | 1266.1 | 0.44
313.15 K, x1 = 0.2936 | 880.52 | 1291 | 0.49
313.15 K, x1 = 0.4055 | 919.62 | 1318.8 | 0.6
313.15 K, x1 = 0.5051 | 951.43 | 1342.5 | 0.71
313.15 K, x1 = 0.6001 | 979.59 | 1364.1 | 0.85
313.15 K, x1 = 0.7006 | 1007.58 | 1388 | 1
313.15 K, x1 = 0.8072 | 1035.36 | 1410.3 | 1.19
313.15 K, x1 = 0.8947 | 1057.03 | 1431 | 1.35
313.15 K, x1 = 1 | 1080.6 | 1440 | 1.53
318.15 K, x1 = 0.0995 | 798.81 | 1221.8 | 0.35
318.15 K, x1 = 0.2061 | 841.59 | 1247.4 | 0.42
318.15 K, x1 = 0.2936 | 875.23 | 1272.7 | 0.47
318.15 K, x1 = 0.4055 | 914.41 | 1300.5 | 0.57
318.15 K, x1 = 0.5051 | 946.27 | 1325 | 0.67
318.15 K, x1 = 0.6001 | 974.52 | 1346.9 | 0.79
318.15 K, x1 = 0.7006 | 1002.73 | 1371.2 | 0.94
318.15 K, x1 = 0.8072 | 1030.38 | 1393.5 | 1.1
318.15 K, x1 = 0.8947 | 1052.04 | 1413.8 | 1.24
318.15 K, x1 = 1 | 1075.6 | 1423.3 | 1.41
323.15 K, x1 = 0.0995 | 793.34 | 1202.4 | 0.34
323.15 K, x1 = 0.2061 | 836.19 | 1228.6 | 0.4
323.15 K, x1 = 0.2936 | 869.91 | 1254.3 | 0.45
323.15 K, x1 = 0.4055 | 909.18 | 1282.7 | 0.54
323.15 K, x1 = 0.5051 | 941.1 | 1307.6 | 0.63
323.15 K, x1 = 0.6001 | 969.42 | 1329.7 | 0.75
323.15 K, x1 = 0.7006 | 997.71 | 1354.2 | 0.87
323.15 K, x1 = 0.8072 | 1025.37 | 1376.8 | 1.03
323.15 K, x1 = 0.8947 | 1047.05 | 1397.2 | 1.15
323.15 K, x1 = 1 | 1070.66 | 1406.7 | 1.3
